Data from PubChem BioAssay AID1963978 (Molecular Pharmacology Branch, DTP, NCI, 2024).

Tested on: 616215-338-R-J1-PDC spheroids with HUVEC/MSC, viability
Test: Anticancer human tumor 616215-338-R-J1-PDC patient-derived colon adenocarcinoma cell line growth inhibition [PI3K]
Details: for IC50: curve of first compound; for viability, T/C: stronger effect = lower value
Outline: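 Tumor cells were combined with HUVEC and MSCs into spheroids, then dosed with PI3K-inhibitor combinations over half-log ranges capped near clinical Cmax or 10 microM.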
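Further: spheroids exposed to agents for seven days before the viability read.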

Question: For `CNC(=O)c1ccc(N2C(=S)N(c3ccc(C#N)c(C(F)(F)F)c3)C(=O)C2(C)C)cc1F` + Cc1nc(NC(=O)N2CCCC2C(N)=O)sc1-c1ccnc(C(C)(C)C(F)(F)F)c1, which IC50 (second compound 0.0316 µM) is on record?
Answer: > 10000 nM

Question: And the IC50 (second compound 0.1 µM)?
Answer: > 10000 nM

Question: And the IC50 (second compound 0.316 µM)?
Answer: > 10000 nM

Question: And the IC50 (second compound 1 µM)?
Answer: > 10000 nM

Question: And the IC50 (second compound 3.16 µM)?
Answer: > 10000 nM

Question: And the IC50 (second compound 10 µM)?
Answer: > 10000 nM

Question: What about the viability, T/C (second compound 0.0316 µM, first compound 0.0316 µM) of the same compound?
Answer: 97.6%

Question: What about the viability, T/C (second compound 0.0316 µM, first compound 0.1 µM) of the same compound?
Answer: 95.1%

Question: What about the viability, T/C (second compound 0.0316 µM, first compound 0.316 µM) of the same compound?
Answer: 102%

Question: And the viability, T/C (second compound 0.0316 µM, first compound 1 µM)?
Answer: 96.5%

Question: And the viability, T/C (second compound 0.0316 µM, first compound 3.16 µM)?
Answer: 95.6%

Question: And the viability, T/C (second compound 0.0316 µM, first compound 10 µM)?
Answer: 93%

Question: What about the viability, T/C (second compound 0.1 µM, first compound 0.0316 µM) of the same compound?
Answer: 116%

Question: What about the viability, T/C (second compound 0.1 µM, first compound 0.1 µM) of the same compound?
Answer: 86%

Question: And the viability, T/C (second compound 0.1 µM, first compound 0.316 µM)?
Answer: 94.7%

Question: What about the viability, T/C (second compound 0.1 µM, first compound 1 µM) of the same compound?
Answer: 99%

Question: And the viability, T/C (second compound 0.1 µM, first compound 3.16 µM)?
Answer: 91.9%

Question: And the viability, T/C (second compound 0.1 µM, first compound 10 µM)?
Answer: 103%

Question: And the viability, T/C (second compound 0.316 µM, first compound 0.0316 µM)?
Answer: 94%

Question: And the viability, T/C (second compound 0.316 µM, first compound 0.1 µM)?
Answer: 99.9%

Question: What about the viability, T/C (second compound 0.316 µM, first compound 0.316 µM) of the same compound?
Answer: 109%

Question: And the viability, T/C (second compound 0.316 µM, first compound 1 µM)?
Answer: 97.9%

Question: And the viability, T/C (second compound 0.316 µM, first compound 3.16 µM)?
Answer: 94.4%

Question: What about the viability, T/C (second compound 0.316 µM, first compound 10 µM) of the same compound?
Answer: 93.1%

Question: What about the viability, T/C (second compound 1 µM, first compound 0.0316 µM) of the same compound?
Answer: 101%

Question: And the viability, T/C (second compound 1 µM, first compound 0.1 µM)?
Answer: 96.4%

Question: What about the viability, T/C (second compound 1 µM, first compound 0.316 µM) of the same compound?
Answer: 104%

Question: And the viability, T/C (second compound 1 µM, first compound 1 µM)?
Answer: 97.4%

Question: And the viability, T/C (second compound 1 µM, first compound 3.16 µM)?
Answer: 101%

Question: And the viability, T/C (second compound 1 µM, first compound 10 µM)?
Answer: 104%

Question: What about the viability, T/C (second compound 3.16 µM, first compound 0.0316 µM) of the same compound?
Answer: 101%

Question: What about the viability, T/C (second compound 3.16 µM, first compound 0.1 µM) of the same compound?
Answer: 93.8%

Question: What about the viability, T/C (second compound 3.16 µM, first compound 0.316 µM) of the same compound?
Answer: 91.3%

Question: What about the viability, T/C (second compound 3.16 µM, first compound 1 µM) of the same compound?
Answer: 90%

Question: And the viability, T/C (second compound 3.16 µM, first compound 3.16 µM)?
Answer: 93.5%

Question: And the viability, T/C (second compound 3.16 µM, first compound 10 µM)?
Answer: 90.6%

Question: What about the viability, T/C (second compound 10 µM, first compound 0.0316 µM) of the same compound?
Answer: 90.6%

Question: And the viability, T/C (second compound 10 µM, first compound 0.1 µM)?
Answer: 93.3%

Question: And the viability, T/C (second compound 10 µM, first compound 0.316 µM)?
Answer: 98.4%

Question: What about the viability, T/C (second compound 10 µM, first compound 1 µM) of the same compound?
Answer: 98.9%

Question: What about the viability, T/C (second compound 10 µM, first compound 3.16 µM) of the same compound?
Answer: 99.4%

Question: And the viability, T/C (second compound 10 µM, first compound 10 µM)?
Answer: 54.6%

Question: How did the IC50 (second compound 0.0316 µM) turn out when `Cn1cnc2c(F)c(Nc3ccc(Br)cc3Cl)c(C(=O)NOCCO)cc21` + Cc1nc(NC(=O)N2CCCC2C(N)=O)sc1-c1ccnc(C(C)(C)C(F)(F)F)c1 was run?
Answer: 1010 nM

Question: What about the IC50 (second compound 0.1 µM) of the same compound?
Answer: 1590 nM

Question: What about the IC50 (second compound 0.316 µM) of the same compound?
Answer: 1110 nM

Question: What about the IC50 (second compound 1 µM) of the same compound?
Answer: 725 nM

Question: What about the IC50 (second compound 3.16 µM) of the same compound?
Answer: 423 nM

Question: What about the IC50 (second compound 10 µM) of the same compound?
Answer: 379 nM

Question: What about the viability, T/C (second compound 0.0316 µM, first compound 0.00949 µM) of the same compound?
Answer: 107%

Question: What about the viability, T/C (second compound 0.0316 µM, first compound 0.03 µM) of the same compound?
Answer: 94.8%

Question: What about the viability, T/C (second compound 0.0316 µM, first compound 0.0949 µM) of the same compound?
Answer: 99.2%

Question: What about the viability, T/C (second compound 0.0316 µM, first compound 0.3 µM) of the same compound?
Answer: 79.9%

Question: And the viability, T/C (second compound 0.0316 µM, first compound 0.949 µM)?
Answer: 50.1%

Question: And the viability, T/C (second compound 0.0316 µM, first compound 3 µM)?
Answer: 44.3%

Question: What about the viability, T/C (second compound 0.1 µM, first compound 0.00949 µM) of the same compound?
Answer: 111%

Question: What about the viability, T/C (second compound 0.1 µM, first compound 0.03 µM) of the same compound?
Answer: 91.3%

Question: What about the viability, T/C (second compound 0.1 µM, first compound 0.0949 µM) of the same compound?
Answer: 98.2%

Question: And the viability, T/C (second compound 0.1 µM, first compound 0.3 µM)?
Answer: 91.8%

Question: And the viability, T/C (second compound 0.1 µM, first compound 0.949 µM)?
Answer: 55.3%

Question: What about the viability, T/C (second compound 0.1 µM, first compound 3 µM) of the same compound?
Answer: 43.4%

Question: And the viability, T/C (second compound 0.316 µM, first compound 0.00949 µM)?
Answer: 109%

Question: And the viability, T/C (second compound 0.316 µM, first compound 0.03 µM)?
Answer: 101%

Question: And the viability, T/C (second compound 0.316 µM, first compound 0.0949 µM)?
Answer: 77.4%

Question: What about the viability, T/C (second compound 0.316 µM, first compound 0.3 µM) of the same compound?
Answer: 73.1%

Question: What about the viability, T/C (second compound 0.316 µM, first compound 0.949 µM) of the same compound?
Answer: 50.1%

Question: And the viability, T/C (second compound 0.316 µM, first compound 3 µM)?
Answer: 36.9%

Question: What about the viability, T/C (second compound 1 µM, first compound 0.00949 µM) of the same compound?
Answer: 99.7%

Question: And the viability, T/C (second compound 1 µM, first compound 0.03 µM)?
Answer: 95.6%

Question: What about the viability, T/C (second compound 1 µM, first compound 0.0949 µM) of the same compound?
Answer: 83.4%

Question: And the viability, T/C (second compound 1 µM, first compound 0.3 µM)?
Answer: 75.8%

Question: What about the viability, T/C (second compound 1 µM, first compound 0.949 µM) of the same compound?
Answer: 39.2%

Question: And the viability, T/C (second compound 1 µM, first compound 3 µM)?
Answer: 36.5%

Question: And the viability, T/C (second compound 3.16 µM, first compound 0.00949 µM)?
Answer: 106%

Question: And the viability, T/C (second compound 3.16 µM, first compound 0.03 µM)?
Answer: 94.5%

Question: What about the viability, T/C (second compound 3.16 µM, first compound 0.0949 µM) of the same compound?
Answer: 79.3%

Question: What about the viability, T/C (second compound 3.16 µM, first compound 0.3 µM) of the same compound?
Answer: 55.4%

Question: And the viability, T/C (second compound 3.16 µM, first compound 0.949 µM)?
Answer: 36.4%

Question: What about the viability, T/C (second compound 3.16 µM, first compound 3 µM) of the same compound?
Answer: 26.2%

Question: And the viability, T/C (second compound 10 µM, first compound 0.00949 µM)?
Answer: 101%

Question: And the viability, T/C (second compound 10 µM, first compound 0.03 µM)?
Answer: 86.3%

Question: And the viability, T/C (second compound 10 µM, first compound 0.0949 µM)?
Answer: 94%

Question: And the viability, T/C (second compound 10 µM, first compound 0.3 µM)?
Answer: 54.1%

Question: What about the viability, T/C (second compound 10 µM, first compound 0.949 µM) of the same compound?
Answer: 21.9%

Question: And the viability, T/C (second compound 10 µM, first compound 3 µM)?
Answer: 1.33%
